{"source": "patent US9751919B2", "about": "“Antimicrobial compositions comprising a hyaluronic acid binding peptide and a β-lactam antibiotic” (priority 2012, dated 2017)", "test_in_all_cases": "Checkerboard assay (FIC index)", "key": {"HA-MRSA": {"tested_on": "HA-MRSA", "assay_type": "cell-based, Staphylococcus aureus", "method": "(§1) Checkerboard assays were carried out as described by Bonapace et al.\n(§2) Diagnostic Microbiology and Infectious Diseases 2002; 44:363-366. In brief, checkerboard assays were performed in 96 well microtitre trays using an 8-by-8 well configuration. […] 96-well custom designed microtitre plates contained 100 ul/well of cation adjusted Mueller-Hinton broth (eg. for Enterobacteriaceae) with or without lysed horse blood (2-5% V/V) [eg. for S. pneumoniae] and were inoculated to achieve a final concentration of approximately 5×10^5 CFU/ml and incubated in ambient air for 24 hours prior to reading. Colony counts were performed periodically to confirm inocula. Quality control was performed every two weeks using a variety of ATCC QC organisms including; S. pneumoniae 49619, S. aureus 29213, E. faecalis 29212, E. coli 25922 and P. aeruginosa 27853. […] All peptides were assessed for synergy with β-lactams and vancomycin. For all antimicrobials as well as the peptides, CLSI criteria were used.\n(§3) The fractional inhibitory concentration index (FIC index) was used to interpret synergy, antagonism or additivity/indifference. FIC index=FIC of drug A+FIC of drug B where:\n(§4) The FIC of drug A and drug B was calculated as follows, FIC drug A=MIC of drug A in combination/MIC of drug A alone and FIC of drug B=MIC of drug B in combination/MIC of drug B alone. Synergy was defined as FIC index ≦0.5, additivity/indifference defined as a FIC between 0.5 and 4 and antagonism defined as an FIC index >4.\n(§5) The fractional inhibitory concentration index (FIC index) was used to interpret synergy, antagonism or additivity/indifference. FIC index=FIC of drug A+FIC of drug B where the FIC of drug A and drug B was calculated as follows, FIC drug A=MIC of drug A in combination/MIC of drug A alone and FIC of drug B=MIC of drug B in combination/MIC of drug B alone. Synergy was defined as FIC index ≦0.5, additivity/indifference defined as an FIC of between 0.5 and 4 and antagonism defined as an FIC index >4.\n(§6) The checkerboard assays were carried out as described by Eliopoulos and Moellering (Chapter 9) in Antibiotic in Laboratory Medicine, Lorian Ed. 1996 as well as Bonapace et al. Diagnostic Microbiology and Infectious Diseases 2002; 44:363-366 and Bonapace et al. Diagnostic Microbiology and Infectious Diseases 2000; 38:43-50. In brief, checkerboard assays were performed in 96 well microtitre trays using an 8-by-8 well configuration. […] 96-well custom designed microtitre plates contained 100 ul/well of cation adjusted Mueller-Hinton broth (eg. for Enterobacteriaceae) with or without lysed horse blood (2-5% V/V) [eg. for S. pneumoniae] and were inoculated to achieve a final concentration of approximately 5×10^5 CFU/ml and incubated in ambient air for 24 hours prior to reading. Colony counts were performed periodically to confirm inocula. Quality control was performed every two weeks using a variety of ATCC QC organisms including; S. pneumoniae 49619, S. aureus 29213, E. faecalis 29212, E. coli 25922 and P. aeruginosa 27853.\n(§7) The FIC of drug A and drug B is calculated as follows, FIC drug A=MIC of drug A in combination/MIC of drug A alone and FIC of drug B=MIC of drug B in combination/MIC of drug B alone. Synergy is defined as FIC index ≦0.5, additivity/indifference FIC >0.5-4 and antagonism FIC index >4.\n(§8) These agents were obtained as laboratory grade powders from their respective manufacturers. Stock solutions were prepared and dilutions made as described by the Clinical Laboratory Standards Institute (2005 CLSI)."}, "CA-MRSA": {"tested_on": "CA-MRSA", "assay_type": "cell-based, Staphylococcus aureus", "method": "as §1, §2, §3, §4, §5, §6, §7, §8"}, "VRSA": {"tested_on": "VRSA", "assay_type": "cell-based, Staphylococcus aureus", "method": "as §1, §2, §3, §4, §5, §6, §7, §8"}, "S. pneumoniae": {"tested_on": "S. pneumoniae", "assay_type": "cell-based, Streptococcus pneumoniae", "conditions": "antibiotic combined with PEP35", "method": "as §6, with “27853. For all antimicrobials as well as PEP35, CLSI criteria was used.” for “27853.”\nas §3, §7\n(§9) Antimicrobials used included PEP35, cefazolin, ceftriaxone, vancomycin, linezolid, tigecycline and daptomycin versus Gram-positive cocci and PEP35, gentamicin, levofloxacin, piperacillin/tazobactam, meropenem and colistin (Polymyxin E) versus Gram-negative bacilli. These agents were obtained as laboratory grade powders from their respective manufacturers. Stock solutions were prepared and dilutions made as described by the Clinical Laboratory Standards Institute (2005 CLSI).\n(§10) Organisms included Gram-positive cocci (2 strains of each): Methicillin-susceptible Staphylococcus aureus (MSSA), community-associated (CA) and healthcare-associated (HA) methicillin-resistant Staphylococcus aureus (MRSA), vancomycin-intermediate Staphylococcus aureus (VISA), vancomycin-resistant Staphylococcus aureus (VRSA), methicillin-resistant Staphylococcus epidermidis (MRSE), Streptococcus pyogenes, Streptococcus agalactiae, Streptococcus pneumoniae, Enterococcus faecalis, Enterococcus faecium and vancomycin-resistant enterococcus (VRE). Gram-negative bacilli tested (2 strains of each) included: E. coli, Pseudomonas aeruginosa, Klebsiella pneumoniae, K. oxytoca, Enterobacter cloacae, P. mirabilis and Stenotrophomonas maltophilia. MIC testing, following two subcultures from frozen stock were determined by the CLSI 2005 approved broth microdilution method."}, "S. pyogenes": {"tested_on": "S. pyogenes", "assay_type": "cell-based, Streptococcus pyogenes", "conditions": "antibiotic combined with PEP35", "method": "as §6, with “27853. For all antimicrobials as well as PEP35, CLSI criteria was used.” for “27853.”\nas §3, §7, §9, §10"}, "[1]": {"conditions": "antibiotic combined with PEP35 (added together), HA-MRSA 77090 (USA100/800)"}, "[2]": {"conditions": "β-lactam combined with HybPEP35-1, HA-MRSA 70798 (USA100/800)"}, "[3]": {"conditions": "β-lactam combined with PEP-52, HA-MRSA 70798 (USA100/800)"}, "[4]": {"conditions": "β-lactam combined with Scrambled PEP35, HA-MRSA 70798 (USA100/800)"}, "[5]": {"conditions": "antibiotic combined with PEP35 (added together), CA-MRSA 70857 (USA400)"}, "[6]": {"conditions": "β-lactam combined with HybPEP35-1, CA-MRSA 69615 (USA400)"}, "[7]": {"conditions": "β-lactam combined with PEP-52, CA-MRSA 69615 (USA400)"}, "[8]": {"conditions": "β-lactam combined with Scrambled PEP35, CA-MRSA 69615 (USA400)"}, "[9]": {"conditions": "antibiotic combined with PEP35 (added together), VRSA 105"}, "[10]": {"conditions": "β-lactam combined with HybPEP35-1, VRSA 106"}, "[11]": {"conditions": "β-lactam combined with PEP-52, VRSA 106"}, "[12]": {"conditions": "β-lactam combined with Scrambled PEP35, VRSA 106"}, "[13]": {"conditions": "S. pneumoniae-Pen I 72302 (MHB)"}, "[14]": {"conditions": "S. pneumoniae-Pen I 78663 (MHB)"}, "[15]": {"conditions": "S. pneumoniae-Pen R 76065 (MHB)"}, "[16]": {"conditions": "S. pneumoniae-Pen R 78519 (MHB)"}, "[17]": {"conditions": "S. pneumoniae-Pen S 70400 (MHB)"}, "[18]": {"conditions": "S. pneumoniae-Pen S 71263 (MHB)"}}, "note": "“And” between values parts separate entries of the source, which are not always exact repeats. Identical values can stand only once. Marks after values point to notes of the source that are not given here.", "data": [{"smiles": "Cc1nnc(SCC2=C(C(=O)O)N3C(=O)[C@@H](NC(=O)Cn4cnnn4)[C@H]3SC2)s1", "note": "[Cefazolin]", "values": [{"measurement": "Avg ΣFIC (range)", "setting": "HA-MRSA; [1]", "result": "0.30 (0.12-0.56) and 0.24 (0.075-0.53)"}, {"measurement": "Avg ΣFIC (range)", "setting": "HA-MRSA; [2]", "result": 0.35}, {"measurement": "Avg ΣFIC (range)", "setting": "HA-MRSA; [3]", "result": ">1*"}, {"measurement": "Avg ΣFIC (range)", "setting": "HA-MRSA; [4]", "result": 0.35}, {"measurement": "Avg ΣFIC (range)", "setting": "CA-MRSA; [5]", "result": "0.3 (0.12-0.56) and 0.26 (0.09-0.53)"}, {"measurement": "Avg ΣFIC (range)", "setting": "CA-MRSA; [6]", "result": 0.24}, {"measurement": "Avg ΣFIC (range)", "setting": "CA-MRSA; [7]", "result": ">0.5*"}, {"measurement": "Avg ΣFIC (range)", "setting": "CA-MRSA; [8]", "result": 0.24}, {"measurement": "Avg ΣFIC (range)", "setting": "VRSA; [9]", "result": "0.63 (0.5-1.015)"}, {"measurement": "Avg ΣFIC (range)", "setting": "VRSA; [10]", "result": 0.52}, {"measurement": "Avg ΣFIC (range)", "setting": "VRSA; [11]", "result": ">1*"}, {"measurement": "Avg ΣFIC (range)", "setting": "VRSA; [12]", "result": 0.52}, {"measurement": "Avg ΣFIC (range)", "setting": "S. pneumoniae; [13]", "result": "1.1 (1.0-1.25)"}, {"measurement": "Avg ΣFIC (range)", "setting": "S. pneumoniae; [14]", "result": "1.1 (1.0-1.25)"}, {"measurement": "Avg ΣFIC (range)", "setting": "S. pneumoniae; [15]", "result": "0.70 (0.53-1.06)"}, {"measurement": "Avg ΣFIC (range)", "setting": "S. pneumoniae; [16]", "result": "0.97 (0.75-1.12)"}, {"measurement": "Avg ΣFIC (range)", "setting": "S. pneumoniae; [17]", "result": "0.68 (0.515-1.06)"}, {"measurement": "Avg ΣFIC (range)", "setting": "S. pneumoniae; [18]", "result": "0.99 (0.62-1.25)"}, {"measurement": "Avg ΣFIC (range)", "setting": "S. pyogenes; S. pyogenes 77765 (MHB)", "result": "1.04 (0.75-1.25)"}, {"measurement": "Avg ΣFIC (range)", "setting": "S. pyogenes; S. pyogenes 79531 (MHB)", "result": "1.19 (1.03-1.5)"}]}, {"smiles": "CO/N=C(\\C(=O)N[C@@H]1C(=O)N2C(C(=O)O)=C(CSc3nc(=O)c(=O)[nH]n3C)CS[C@H]12)c1csc(N)n1", "note": "[Ceftriaxone]", "values": [{"measurement": "Avg ΣFIC (range)", "setting": "HA-MRSA; [1]", "result": "0.27 (0.09-0.53) and 0.27 (0.09-0.56)"}, {"measurement": "Avg ΣFIC (range)", "setting": "HA-MRSA; [2]", "result": 0.32}, {"measurement": "Avg ΣFIC (range)", "setting": "HA-MRSA; [3]", "result": ">1*"}, {"measurement": "Avg ΣFIC (range)", "setting": "HA-MRSA; [4]", "result": 0.32}, {"measurement": "Avg ΣFIC (range)", "setting": "CA-MRSA; [5]", "result": "0.51 (0.18-1.015)"}, {"measurement": "Avg ΣFIC (range)", "setting": "CA-MRSA; [6]", "result": 0.31}, {"measurement": "Avg ΣFIC (range)", "setting": "CA-MRSA; [7]", "result": ">0.5*"}, {"measurement": "Avg ΣFIC (range)", "setting": "CA-MRSA; [8]", "result": 0.31}, {"measurement": "Avg ΣFIC (range)", "setting": "VRSA; [9]", "result": "0.45 (0.24-0.56) and 0.54 (0.18-1.06)"}, {"measurement": "Avg ΣFIC (range)", "setting": "VRSA; [10]", "result": 0.39}, {"measurement": "Avg ΣFIC (range)", "setting": "VRSA; [11]", "result": ">1*"}, {"measurement": "Avg ΣFIC (range)", "setting": "VRSA; [12]", "result": 0.39}, {"measurement": "Avg ΣFIC (range)", "setting": "S. pneumoniae; [13]", "result": "1.05 (0.75-1.25)"}, {"measurement": "Avg ΣFIC (range)", "setting": "S. pneumoniae; [14]", "result": "1.1 (1.0-1.25)"}, {"measurement": "Avg ΣFIC (range)", "setting": "S. pneumoniae; [15]", "result": "1.21 (1.03-1.5)"}, {"measurement": "Avg ΣFIC (range)", "setting": "S. pneumoniae; [16]", "result": "1.05 (0.75-1.25)"}, {"measurement": "Avg ΣFIC (range)", "setting": "S. pneumoniae; [17]", "result": "0.99 (0.62-1.06)"}, {"measurement": "Avg ΣFIC (range)", "setting": "S. pneumoniae; [18]", "result": "0.91 (0.62-1.12)"}, {"measurement": "Avg ΣFIC (range)", "setting": "S. pyogenes; S. pyogenes 77765 (MHB)", "result": "1.19 (0.03-1.5)"}, {"measurement": "Avg ΣFIC (range)", "setting": "S. pyogenes; S. pyogenes 79531 (MHB)", "result": "1.19 (1.03-1.5)"}]}]}
